The values that follow come from patent US20250136581A1, “SUBSTITUTED TRIAZOLE DERIVATIVE, PREPARATION METHOD THEREFOR, PHARMACEUTICAL COMPOSITION THEREOF, AND USE THEREOF” (SHANGHAI SIMR BIOTECHNOLOGY CO., LTD., priority 2021, published 2025).

The structures appear in SMILES notation. Where two headings read alike, the source gives them in different places.

Data set [1] concerns the target α5-GABAA receptor (α5, β3, γ2 subunits) (Homo sapiens (Human), UniProt P18507+P31644). Description: Whole cell patch clamp, inverse agonist efficacy in HEK293 cells expressing α5-GABAA receptor. The class given is cell-based. To be noted: HEK293, drug 100 nM, GABA 0.05 μM, −60 mV; read-out: Compound inverse agonist efficacy %. In a few lines:
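Stable HEK293 line co-expressing human α5, β3, γ2 subunits; whole-cell patch clamp at −60 mV, inward current evoked by 0.05 μM GABA, then compound at 100 nM in GABA solution applied. Effect derived from leak, pre- and post-drug GABA currents.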

A further data set addresses human α1β3γ2 receptors (Homo sapiens (Human), UniProt P14867+P18507). Description: 3H-flunitrazepam competition binding, human α1β3γ2 GABAA receptor. The note with it: HEK293 cell membranes, 1 nM 3H-flunitrazepam; read-out: Ki α1. How it is done: (§1) The affinity of the compound to each subtype of GABAA receptor was determined by competing for the binding of ^3H-flunitrazepam to HEK293 cells stably expressing human α1β3γ2, α2β3γ2, α3β3γ2, and α5β3γ2 receptors.
(§2) The cells were suspended in 50 mM Tris-HCl buffer (pH=7.4), homogenized 10 times on ice with a homogenizer for 20 seconds, and centrifuged at 1000 g for 10 minutes at 4° C. The supernatant was collected, and the above steps were repeated. The supernatant was centrifuged at 4° C. (33800 g; Thermo, rotor: A27-8×50) for 60 minutes, and the precipitate was resuspended in Tris buffer (50 mM Tris-HCl, 10 mM MgCl2, 0.5 mM EDTA, 10% glycerol). Protein was measured (BCA method, Pierce), and 1 mL aliquots were prepared and stored at −80° C.
(§3) The radioligand competition binding assay was performed in a 200 μL system (96-well plate) containing 100 μL of cell membrane. The concentration of ^3H-flunitrazepam was 1 nM and the concentration of the test compound was in the range of […]. Flumazenil was used as a control. 1 μL of 2 mM flumazenil (final concentration […]) was added to the low signal control well (Low control, LC), and 1 μL of DMSO was added to the high signal control well (High control, HC). The final concentration of target membrane protein was […]. All test compound sample storage solutions were 10 mM. The working concentration of the samples was to dilute all the samples to 0.2 mM with DMSO, followed by 4-fold serial gradient dilutions for a total of 8 concentration gradients. The 96-well plate was sealed with a sealing film, and then incubated on a shaker at room temperature for 1 hour. At the same time, the GF/C filter plate was soaked in soaking buffer (0.3% PEI, stored at 4° C.) for at least 0.5 hours. After the binding incubation was completed, the cells were collected onto a GF/C filter plate using a cell harvester. The plate was washed four times with washing buffer (50 mM Tris-HCl, pH 7.4, stored at 4° C.). After drying in a 50° C. oven for 1 hour, the bottom of the dried GF/C filter plate was sealed. The residual radioactivity on the filter membrane was detected using liquid scintillation counting. 50 μL of scintillation fluid was added to each well, and the plate was sealed. The readings were taken using a Microbeta2. The inhibitory activity of the test sample on the binding of ^3H-flunitrazepam to GABAA receptor membrane proteins was calculated, and the IC50 of each test sample was calculated by dose-effect curve fitting (GraphPad Prism 5 software), and the Ki of the sample was calculated from the IC50, thus evaluating the binding ability of the sample to the various subtypes of GABAA receptors.

The target in data set [2] is human α5β3γ2 receptors (α5-GABAA receptor) (Homo sapiens (Human), UniProt P18507+P31644). Description: 3H-flunitrazepam competition binding, human α5β3γ2 GABAA receptor. The note with it: HEK293 cell membranes, 1 nM 3H-flunitrazepam; read-out: α5-GABAAR Ki. The essentials: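 HEK293 membranes stably expressing each human receptor subtype ([…]) competed against 1 nM 3H-flunitrazepam in Tris buffer, 1 h at room temperature; flumazenil defined the low-signal control. Eight-point 4-fold test-compound dilutions; GF/C filtration and scintillation counting gave IC50 by curve fitting, converted to Ki.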

The next data set concerns the target human α2β3γ2 receptors (Homo sapiens (Human), UniProt P18507+P47869). Description: 3H-flunitrazepam competition binding, human α2β3γ2 GABAA receptor. The note with it: HEK293 cell membranes, 1 nM 3H-flunitrazepam; read-out: Ki α2. How it is done: as §1, §2, §3
For the next data set, the target named is human α3β3γ2 receptors (Homo sapiens (Human), UniProt P18507+P34903). Description: 3H-flunitrazepam competition binding, human α3β3γ2 GABAA receptor. To be noted: HEK293 cell membranes, 1 nM 3H-flunitrazepam; read-out: Ki α3. How it is done: as §1, §2, §3
Data set [3] in a line: Rat pharmacokinetic experiment. The note with it: rat, po; for Kp: male, SD, brain / plasma, read-out: B/P (proportion of compounds entering the brain); for Cmax: plasma, male SD rats. Format: in vivo. How it is done: The maximum plasma concentration (Cmax) in the rat pharmacokinetic experiment was used to evaluate the absorption of the compounds in rat in vivo. The experimental compound was dissolved and then orally administered by gavage (p.o.) to male SD rats. The rats were fasted overnight before drug administration, and blood was collected via venipuncture at 0.25, 0.5, 1, 2, 4, and 7 hours post dose. Approximately 100 μL blood was collected for each sample; at the same time, the whole brain was taken and homogenized with 3 times the amount of PBS for analysis. The […] method was used to determine drug concentrations in plasma and brain tissue, and the proportion of compounds entering the brain (B/P) was calculated based on the AUC of the compound. Pharmacokinetic parameters were calculated using Phoenix WinNonlin 7.0. The administration vehicle was 5% CMC-Na aqueous solution.

For the compound `O=C1NCCN2CCN(c3ccc(OCc4c(Cl)nnn4-c4ccc(C(F)F)cc4)nn3)C[C@@H]12` [Example 181, (S)-8-(6-((4-Chloro-1-(4-(difluoromethyl)phenyl)-1H-1,2,3-triazol-5-yl)methoxy)pyridazin-3-yl)hexahydro-2H-pyrazino[1,2-a]pyrazin-1(6H)-one], the inhibition at 0.1 µM in data set [1] was 51.2%. Moreover, the Ki on human α1β3γ2 receptors stood at 140 nM; in data set [2], 1.21 nM; at human α2β3γ2 receptors, 64.2 nM; at human α3β3γ2 receptors, 44.6 nM. Also, the Kp in data set [3] (3 mg/kg) came to 0.0099. In addition, the highest level in data set [3] (3 mg/kg) (Cmax) was 2670 ng/mL.
Consider `Cc1nnn(-c2ccc(C(F)F)cc2)c1COc1ccc(N2CCN3CCNC(=O)[C@@H]3C2)cn1` [Example 56, (S)-8-(6-((1-(4-(Difluoromethyl)phenyl)-4-methyl-1H-1,2,3-triazol-5-yl)methoxy)pyridin-3-yl)octahydro-1H-pyrazino[1,2-a]pyrazin-1-one], for which the inhibition at 0.1 µM in data set [1] is 53.4%. The Ki in data set [2] turned out to be 7.99 nM. Moreover, on human α2β3γ2 receptors, the Ki stood at 330 nM. In data set [3] (3 mg/kg), the Kp worked out at 0.0261 and the peak level (Cmax) was 2050 ng/mL.
Turning to `Cc1nnn(-c2ccc(C(F)F)cc2)c1COc1ccc(N2CCN(C)C(=O)C2)nn1` [Example 26, 4-(6-((1-(4-(Difluoromethyl)phenyl)-4-methyl-1H-1,2,3-triazol-5-yl)methoxy)pyridazin-3-yl)-1-methylpiperazin-2-one], the inhibition at 0.1 µM in data set [1] stood at 50.3%. The Ki was determined as 47.8 nM at human α1β3γ2 receptors, 1.32 nM in data set [2], 45.4 nM at human α2β3γ2 receptors and 23.4 nM on human α3β3γ2 receptors. The Kp in data set [3] (1 mg/kg) is 0.0336. Further, the concentration in data set [3] (1 mg/kg) peaked (Cmax) at 637 ng/mL.
Consider `Cc1nnn(-c2ccc(C(F)F)cc2)c1COc1ccc(N2CCNC(=O)C2)cn1` [Example 21, 4-(6-[(1-(4-(Difluoromethyl)phenyl)-4-methyl-1H-1,2,3-triazol-5-yl)methoxy]pyridin-3-yl)piperazin-2-one], for which, in data set [1], the inhibition at 0.1 µM came to 49.3%. Further, the Ki at human α1β3γ2 receptors is 36.7 nM; in data set [2], 1.24 nM; on human α2β3γ2 receptors it was 41.7 nM; on human α3β3γ2 receptors it was 21.8 nM. Besides, the Kp in data set [3] (1 mg/kg) worked out at 0.045. The Cmax in data set [3] (1 mg/kg) turned out to be 576 ng/mL.
As to `Cc1nnn(-c2ccc(C(F)F)cc2)c1COc1ccc(N2CC(=O)N3CCC[C@H]3C2)nn1` [Example 14, (S)-2-(6-((1-(4-(difluoromethyl)phenyl)-4-methyl-1H-1,2,3-triazol-5-yl)methoxy)pyridazin-3-yl)hexahydropyrrolo[1,2-a]pyrazin-4(1H)-one], in data set [1], the inhibition at 0.1 µM stood at 45.7%. For the same compound, the Ki in data set [2] is 1.24 nM. In data set [3] (3 mg/kg), the Kp worked out at 0.0135 and the Cmax stood at 2700 ng/mL.
`Cc1nnn(-c2ccc(C(F)F)cc2)c1COc1ccc(N2CCN(C3CC3)C(=O)C2)nn1` [Example 108, 1-Cyclopropyl-4-(6-((1-(4-(difluoromethyl)phenyl)-4-methyl-1H-1,2,3-triazol-5-yl)methoxy)pyridazin-3-yl)piperazin-2-one]: in data set [1], the inhibition at 0.1 µM is 52.2%. Besides, in data set [2], the Ki was 1.66 nM. Further, in data set [3] (3 mg/kg), the Kp worked out at 0.0208 and the Cmax is 1780 ng/mL.
The corresponding values for `Cc1nnn(-c2ccc(C(F)F)cc2)c1COc1ccc(N2CC(C(=O)N3CCOCC3)C2)nn1` [Example 104, (1-(6-((1-(4-(Difluoromethyl)phenyl)-4-methyl-1H-1,2,3-triazol-5-yl)methoxy)pyridazin-3-yl)azetidin-3-yl)(morpholino)methanone] are 49.9%, 1.77 nM, 0.0095 and 3890 ng/mL.
In the case of `O=C1CN(c2ccc(OCc3c(CO)nnn3-c3ccc(C(F)F)cc3)nn2)CCN1` [Example 80, 4-(6-((1-(4-(Difluoromethyl)phenyl)-4-(hydroxymethyl)-1H-1,2,3-triazol-5-yl)methoxy)pyridazin-3-yl)piperazin-2-one], in data set [1], the inhibition at 0.1 µM worked out at 54.8%. Further, the Ki on human α1β3γ2 receptors turned out to be 161 nM; in data set [2], 0.82 nM; on human α2β3γ2 receptors, 22.7 nM; on human α3β3γ2 receptors it was 16 nM.
On to `Cn1nnc(-c2ccc(C(F)F)cc2)c1COc1ccc(N2CCNC(=O)C2)nn1` [Example 127, 4-(6-((4-(4-(Difluoromethyl)phenyl)-1-methyl-1H-1,2,3-triazol-5-yl)methoxy)pyridazin-3-yl)piperazin-2-one], for which the inhibition at 0.1 µM in data set [1] is 55%. Further, the Ki amounted to 400 nM on human α1β3γ2 receptors, 2.08 nM in data set [2], 23.7 nM on human α2β3γ2 receptors and 36.7 nM at human α3β3γ2 receptors.
The corresponding values for `Cc1nnn(-c2ccc(C(F)F)cc2)c1COc1ccc(N2CCN[C@H](C(=O)O)C2)nn1` [Example 27, (S)-4-(6-((1-(4-(Difluoromethyl)phenyl)-4-methyl-1H-1,2,3-triazol-5-yl)methoxy)pyridazin-3-yl)piperazine-2-carboxylic acid] are 59.1%, 333 nM, 3.65 nM, 107 nM and 135 nM.
As to `Cc1nnn(-c2ccc(C(F)F)cc2)c1COc1ccc(N2CC(C(=O)Nc3cnn(C)c3)C2)nn1` [Example 103, 1-(6-((1-(4-(Difluoromethyl)phenyl)-4-methyl-1H-1,2,3-triazol-5-yl)methoxy)pyridazin-3-yl)-N-(1-methyl-1H-pyrazol-4-yl)azetidine-3-carboxamide], the inhibition at 0.1 µM in data set [1] worked out at 49.6%. Moreover, the Ki amounted to 52.8 nM at human α1β3γ2 receptors, 1.27 nM in data set [2], 40.1 nM on human α2β3γ2 receptors and 10.3 nM on human α3β3γ2 receptors.
For `Cc1nnn(-c2ccc(C(F)F)cc2)c1COc1ccc(N2CCN(CCN3CCCC3)C(=O)C2)nn1` [Example 61, 4-(6-((1-(4-(Difluoromethyl)phenyl)-4-methyl-1H-1,2,3-triazol-5-yl)methoxy)pyridazin-3-yl)-1-(2-(pyrrolidin-1-yl)ethyl)piperazin-2-one], in that order: 49%, 126 nM, 2.12 nM, 26 nM and 13.1 nM.
For `N#Cc1nnn(-c2ccc(C(F)F)cc2)c1COc1ccc(N2CCNC(=O)C2)nn1` [Example 78, 1-(4-(Difluoromethyl)phenyl)-5-(((6-(3-oxopiperazin-1-yl)pyridazin-3-yl)oxy)methyl)-1H-1,2,3-triazole-4-carbonitrile], the inhibition at 0.1 µM in data set [1] is 43.7%. The Ki at human α1β3γ2 receptors is 246 nM; in data set [2], 2.03 nM; on human α2β3γ2 receptors, 45.9 nM; on human α3β3γ2 receptors, 28.4 nM.
